Experimental data published in US20240018158A1, “BRM TARGETING COMPOUNDS AND ASSOCIATED METHODS OF USE” (Prelude Therapeutics Incorporated, priority 2020, published 2024).

Target: SMARCA2 (Homo sapiens (Human), UniProt P51531)
Test: SMARCA2 HiBiT degradation assay in HEK293T cells
Format: cell-based
Conditions: 293T HiBiT assay, 24 h; for DC50: read-out: DC50 (SM2-293T) SMARCA2 degradation potency; for Dmax: HEK-293T, read-out: Dmax % (SM2-293T) maximum SMARCA2 degradation within the concentrations tested
Protocol: HiBiT peptide knock-in of SMARCA2 in LgBiT expressing HEK293T cells was performed by CRISPR-mediated tagging system as described Promega. The homozygous HiBiT knock-in on c-terminus SMARCA2 was confirmed by sanger sequence. SMARCA2-HiBiT knock-in Hela monoclonal cell (CS302366) and SMARCA4-HiBiT knock-in Hela monoclonal cell (CS3023226) were purchased from Promega. The heterozygous HiBiT-knock-in was confirmed by sanger sequence in both SMARCA2-HiBiT and SMARCA4-HiBiT monoclonal cells. Compounds were prepared in a low dead volume plate at 3-fold serial dilution, and then transferred 25 nL/well into a 384 well plate (Corning: #356661) by Agilent Bravo liquid dispenser. SMARCA2-HiBiT monoclonal HEK293T cells were added at 5,000/well/25 uL into the compound containing 384 well plate. After 24 h incubation, 25 uL/well of Nano-Glo HiBiT Lytic detection buffer (Promega: N3050) was added to the wells and incubate for 10 min on a shaker, centrifuged for 5 min, and then RLU was detected on a microplate reader (Envision, PerkinElmer). The RLU ratio values are normalized to percent inhibition as follows: % inhibition=((HC−LC)−(compound−LC))/(HC−LC))*100, where HC=high control=mean signal of DMSO only; LC=low control=mean signal of 100% inhibition of RLU by 1 μM PRT1001728. An 11-point dose response curve for each compound will be generated using normalized % inhibition to determine IC50 values based on the equation: Y=Bottom+((Top-Bottom)/(1+((IC50/X)^Slope))), where Y is the % inhibition in the presence of X inhibitor concentration; Top=the top plateau of the curve; Bottom=the bottom plateau of the curve; Slope=Hill coefficient; DC50=concentration of compound with 50% degradation in relation to top/high control. DC50 values were determined by using XLfit Model 205.

Chain of SMARCA2 (P51531 whole entry): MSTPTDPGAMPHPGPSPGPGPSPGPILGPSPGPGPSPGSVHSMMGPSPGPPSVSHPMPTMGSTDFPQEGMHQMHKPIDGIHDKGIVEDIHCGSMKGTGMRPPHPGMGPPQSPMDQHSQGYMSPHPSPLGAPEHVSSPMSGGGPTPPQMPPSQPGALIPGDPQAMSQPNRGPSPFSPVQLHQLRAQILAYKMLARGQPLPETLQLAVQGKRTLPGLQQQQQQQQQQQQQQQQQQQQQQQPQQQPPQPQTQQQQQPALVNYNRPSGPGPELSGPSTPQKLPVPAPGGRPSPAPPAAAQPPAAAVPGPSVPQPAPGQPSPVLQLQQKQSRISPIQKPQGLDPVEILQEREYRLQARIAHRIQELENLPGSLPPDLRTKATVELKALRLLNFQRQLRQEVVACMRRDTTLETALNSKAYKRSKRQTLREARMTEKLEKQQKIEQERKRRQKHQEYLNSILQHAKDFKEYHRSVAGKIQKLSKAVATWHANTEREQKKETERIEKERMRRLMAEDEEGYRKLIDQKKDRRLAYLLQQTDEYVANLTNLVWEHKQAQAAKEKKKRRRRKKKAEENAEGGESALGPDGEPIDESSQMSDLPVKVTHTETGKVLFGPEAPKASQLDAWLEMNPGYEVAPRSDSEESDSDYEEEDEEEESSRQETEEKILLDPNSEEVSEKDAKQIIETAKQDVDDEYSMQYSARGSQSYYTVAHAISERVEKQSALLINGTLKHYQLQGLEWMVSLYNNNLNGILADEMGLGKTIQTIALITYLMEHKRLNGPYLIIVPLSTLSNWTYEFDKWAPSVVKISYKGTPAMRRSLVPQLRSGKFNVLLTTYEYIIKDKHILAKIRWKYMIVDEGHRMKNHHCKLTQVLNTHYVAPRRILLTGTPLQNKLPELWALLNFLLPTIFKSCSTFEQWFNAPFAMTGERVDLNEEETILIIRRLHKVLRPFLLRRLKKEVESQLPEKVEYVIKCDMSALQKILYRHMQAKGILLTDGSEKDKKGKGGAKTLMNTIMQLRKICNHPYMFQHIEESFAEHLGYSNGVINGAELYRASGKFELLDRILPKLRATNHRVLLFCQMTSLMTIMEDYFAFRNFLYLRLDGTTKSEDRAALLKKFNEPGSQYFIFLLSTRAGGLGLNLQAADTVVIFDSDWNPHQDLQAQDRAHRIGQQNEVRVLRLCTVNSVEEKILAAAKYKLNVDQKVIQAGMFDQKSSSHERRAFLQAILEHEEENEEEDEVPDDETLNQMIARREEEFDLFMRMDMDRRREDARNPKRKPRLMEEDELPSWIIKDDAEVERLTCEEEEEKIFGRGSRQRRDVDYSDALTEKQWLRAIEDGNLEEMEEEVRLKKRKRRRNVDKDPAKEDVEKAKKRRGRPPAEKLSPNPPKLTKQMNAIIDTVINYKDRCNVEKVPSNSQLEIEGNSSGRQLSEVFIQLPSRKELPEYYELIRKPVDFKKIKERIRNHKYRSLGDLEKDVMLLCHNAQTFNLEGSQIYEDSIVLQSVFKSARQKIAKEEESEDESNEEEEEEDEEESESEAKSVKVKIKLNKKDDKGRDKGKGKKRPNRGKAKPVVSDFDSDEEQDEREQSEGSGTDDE

Compound | DC50 | Dmax
CC(C)[C@@H](C(=O)N1C[C@H](O)C[C@H]1C(=O)N[C@@H](C)c1ccc(C#N)cc1)c1cc(OCCN2CCC(CN3CCN4c5cc(-c6ccccc6O)nnc5NC[C@H]4C3)CC2)no1 [Example 35, (2S,4R)—N-((S)-1-(4-cyanophenyl)ethyl)-4-hydroxy-1-((R)-2-(3-(2-(4-(((S)-2-(2-hydroxyphenyl)-5,6,6a,7,9,10-hexahydro-8H-pyrazino[1′,2′:4,5]pyrazino[2,3-c]pyridazin-8-yl)methyl)piperidin-1-yl)ethoxy)isoxazol-5-yl)-3-methylbutanoyl)pyrrolidine-2-carboxamide] | < 100 nM | > 75%
Cc1ncsc1-c1ccc([C@H](C)NC(=O)[C@@H]2C[C@@H](O)CN2C(=O)[C@@H](c2cc(OCCN3CCC(CN4CCN5c6cc(-c7ccccc7O)nnc6NC[C@H]5C4)CC3)no2)C(C)C)c(F)c1 [Example 36, (2S,4R)-N-((S)-1-(2-fluoro-4-(4-methylthiazol-5-yl)phenyl)ethyl)-4-hydroxy-1-((R)-2-(3-(2-(4-(((S)-2-(2-hydroxyphenyl)-5,6,6a,7,9,10-hexahydro-8H-pyrazino[1′,2′:4,5]pyrazino[2,3-c]pyridazin-8-yl)methyl)piperidin-1-yl)ethoxy)isoxazol-5-yl)-3-methylbutanoyl)pyrrolidine-2-carboxamide] | < 100 nM | > 75%
Cc1nccn1-c1ccc([C@H](C)NC(=O)[C@@H]2C[C@@H](O)CN2C(=O)[C@@H](c2cc(OCCN3CCC(CN4CCN5c6cc(-c7ccccc7O)nnc6NC[C@H]5C4)CC3)no2)C(C)C)cc1 [Example 37, (2S,4R)-4-hydroxy-1-((R)-2-(3-(2-(4-(((S)-2-(2-hydroxyphenyl)-5,6,6a,7,9,10-hexahydro-8H-pyrazino[1′,2′:4,5]pyrazino[2,3-c]pyridazin-8-yl)methyl)piperidin-1-yl)ethoxy)isoxazol-5-yl)-3-methylbutanoyl)-N-((S)-1-(4-(2-methyl-1H-imidazol-1-yl)phenyl)ethyl)pyrrolidine-2-carboxamide] | < 100 nM | > 75%
Cc1ncsc1-c1ccc([C@H](C)NC(=O)[C@@H]2C[C@@H](O)CN2C(=O)[C@@H](c2cc(CN3CCC(N4CCN5c6cc(-c7ccccc7O)nnc6NC[C@H]5C4)CC3)no2)C(C)C)cc1 [Example 39, (2S,4R)-4-hydroxy-1-((R)-2-(3-((4-((S)-2-(2-hydroxyphenyl)-5,6,6a,7,9,10-hexahydro-8H-pyrazino[1′,2′:4,5]pyrazino[2,3-c]pyridazin-8-yl)piperidin-1-yl)methyl)isoxazol-5-yl)-3-methylbutanoyl)-N-((S)-1-(4-(4-methylthiazol-5-yl)phenyl)ethyl)pyrrolidine-2-carboxamide] | < 100 nM | > 75%
COc1cc(-c2scnc2C)ccc1[C@H](C)NC(=O)[C@@H]1C[C@@H](O)CN1C(=O)[C@@H](c1cc(OCCN2CCC(CN3CCN4c5cc(-c6ccccc6O)nnc5NC[C@H]4C3)CC2)no1)C(C)C [Example 40, (2S,4R)-4-hydroxy-1-((R)-2-(3-(2-(4-(((S)-2-(2-hydroxyphenyl)-5,6,6a,7,9,10-hexahydro-8H-pyrazino[1′,2′:4,5]pyrazino[2,3-c]pyridazin-8-yl)methyl)piperidin-1-yl)ethoxy)isoxazol-5-yl)-3-methylbutanoyl)-N-((S)-1-(2-methoxy-4-(4-methylthiazol-5-yl)phenyl)ethyl)pyrrolidine-2-carboxamide] | < 100 nM | > 75%
Cc1ncsc1-c1ccc([C@H](C)NC(=O)[C@@H]2C[C@@H](O)CN2C(=O)[C@@H](c2cc(OCCN3CCC(N4CCC(N5CCN6c7cc(-c8ccccc8O)nnc7NC[C@H]6C5)CC4)CC3)no2)C(C)C)cc1 [Example 44, (2S,4R)-4-hydroxy-1-((R)-2-(3-(2-(4-((S)-2-(2-hydroxyphenyl)-5,6,6a,7,9,10-hexahydro-8H-pyrazino[1′,2′:4,5]pyrazino[2,3-c]pyridazin-8-yl)-[1,4′-bipiperidin]-1-yl)ethoxy)isoxazol-5-yl)-3-methylbutanoyl)-N-((S)-1-(4-(4-methylthiazol-5-yl)phenyl)ethyl)pyrrolidine-2-carboxamide] | < 100 nM | > 75%
Cc1ncsc1-c1ccc([C@H](C)NC(=O)[C@@H]2C[C@@H](OC(=O)C(C)C)CN2C(=O)[C@@H](c2cc(OCCN3CCC(CN4CCN5c6cc(-c7ccccc7O)nnc6NC[C@H]5C4)CC3)no2)C(C)C)cc1 [Example 52, (3R,5S)-1-((R)-2-(3-(2-(4-(((S)-2-(2-hydroxyphenyl)-5,6,6a,7,9,10-hexahydro-8H-pyrazino[1′,2′:4,5]pyrazino[2,3-c]pyridazin-8-yl)methyl)piperidin-1-yl)ethoxy)isoxazol-5-yl)-3-methylbutanoyl)-5-(((S)-1-(4-(4-methylthiazol-5-yl)phenyl)ethyl)carbamoyl)pyrrolidin-3-yl isobutyrate] | < 100 nM | > 75%
Cc1ncsc1-c1ccc([C@H](C)NC(=O)[C@@H]2C[C@@H](O)CN2C(=O)C(c2cc(COC(=O)N3CCC(N4CCN5c6cc(-c7ccccc7O)nnc6NC[C@H]5C4)CC3)no2)C(C)C)cc1 (stereo partly drawn) [Example 53, (5-(1-((2S,4R)-4-hydroxy-2-(((S)-1-(4-(4-methylthiazol-5-yl)phenyl)ethyl)carbamoyl)pyrrolidin-1-yl)-3-methyl-1-oxobutan-2-yl)isoxazol-3-yl)methyl 4-((S)-2-(2-hydroxyphenyl)-5,6,6a,7,9,10-hexahydro-8H-pyrazino[1′,2′:4,5]pyrazino[2,3-c]pyridazin-8-yl)piperidine-1-carboxylate] | < 100 nM | > 75%
Cc1ncsc1-c1ccc([C@H](C)NC(=O)[C@@H]2C[C@@H](O)CN2C(=O)[C@@H](NC(=O)COCCN2CCN3c4cc(-c5ccccc5O)nnc4NCC3C2)C(C)(C)C)cc1 (stereo partly drawn) [Example 65, (2S,4R)-4-hydroxy-1-((2S)-2-(2-(2-(2-(2-hydroxyphenyl)-5,6,6a,7,9,10-hexahydro-8H-pyrazino[1′,2′:4,5]pyrazino[2,3-c]pyridazin-8-yl)ethoxy)acetamido)-3,3-dimethylbutanoyl)-N-((S)-1-(4-(4-methylthiazol-5-yl)phenyl)ethyl)pyrrolidine-2-carboxamide] | 100 to 1000 nM | > 75%
Cc1ncsc1-c1ccc([C@H](C)NC(=O)[C@@H]2C[C@@H](O)CN2C(=O)[C@@H](NC(=O)CN2CC(N3CCN4c5cc(-c6ccccc6O)nnc5NCC4C3)C2)C(C)(C)C)cc1 (stereo partly drawn) [Example 66, (2S,4R)-4-hydroxy-1-((2S)-2-(2-(3-(2-(2-hydroxyphenyl)-5,6,6a,7,9,10-hexahydro-8H-pyrazino[1′,2′:4,5]pyrazino[2,3-c]pyridazin-8-yl)azetidin-1-yl)acetamido)-3,3-dimethylbutanoyl)-N-((S)-1-(4-(4-methylthiazol-5-yl)phenyl)ethyl)pyrrolidine-2-carboxamide] | 100 to 1000 nM | > 75%
Cc1ncsc1-c1ccc([C@H](C)NC(=O)[C@@H]2C[C@@H](O)CN2C(=O)[C@@H](c2cc(OC(C)CN3CCCC(CN4CCN5c6cc(-c7ccccc7O)nnc6NC[C@H]5C4)CC3)no2)C(C)C)cc1 (stereo partly drawn) [Example 67, (2S,4R)-4-hydroxy-1-((2R)-2-(3-((1-(4-(((S)-2-(2-hydroxyphenyl)-5,6,6a,7,9,10-hexahydro-8H-pyrazino[1′,2′:4,5]pyrazino[2,3-c]pyridazin-8-yl)methyl)azepan-1-yl)propan-2-yl)oxy)isoxazol-5-yl)-3-methylbutanoyl)-N-((S)-1-(4-(4-methylthiazol-5-yl)phenyl)ethyl)pyrrolidine-2-carboxamide] | < 100 nM | > 75%
Cc1ncsc1-c1ccc([C@H](C)NC(=O)[C@@H]2C[C@@H](O)CN2C(=O)[C@@H](c2cc(CCCN3CCN4c5cc(-c6ccccc6O)nnc5NCC4C3)no2)C(C)C)cc1 (stereo partly drawn) [Example 74, (2S,4R)-4-hydroxy-1-((2R)-2-(3-(3-(2-(2-hydroxyphenyl)-5,6,6a,7,9,10-hexahydro-8H-pyrazino[1′,2′:4,5]pyrazino[2,3-c]pyridazin-8-yl)propyl)isoxazol-5-yl)-3-methylbutanoyl)-N-((S)-1-(4-(4-methylthiazol-5-yl)phenyl)ethyl)pyrrolidine-2-carboxamide] | < 100 nM | > 75%
Cc1ncsc1-c1ccc([C@H](C)NC(=O)[C@@H]2C[C@@H](O)CN2C(=O)C(c2cc(COc3cc(N4CCN5c6cc(-c7ccccc7O)nnc6NCC5C4)ccn3)no2)C(C)C)cc1 (stereo partly drawn) [Example 75, (2S,4R)-4-hydroxy-1-(2-(3-(((4-(2-(2-hydroxyphenyl)-5,6,6a,7,9,10-hexahydro-8H-pyrazino[1′,2′:4,5]pyrazino[2,3-c]pyridazin-8-yl)pyridin-2-yl)oxy)methyl)isoxazol-5-yl)-3-methylbutanoyl)N-((S)-1-(4-(4-methylthiazol-5-yl)phenyl)ethyl)pyrrolidine-2-carboxamide] | 100 to 1000 nM | > 75%
